Laboratory results from ChEMBL document CHEMBL3885881, “DrugMatrix”.

Species: Rattus norvegicus
Assay: DrugMatrix - Regimen: Daily Repeat
Format: toxicity, organism-based, Sprague-Dawley
Set-up: regimen Daily Repeat, gender Male, age 6-8 weeks
Settings: in vivo, iv, vehicle 100 % SALINE; for ABSOLUTE BASOPHIL / ABSOLUTE EOSINOPHIL / ABSOLUTE LYMPHOCYTE / ABSOLUTE MONOCYTE / ABSOLUTE SEGMENTED NEUTROPHIL / BASOPHIL / EOSINOPHIL / ERYTHROCYTE COUNT / HEMATOCRIT / HEMOGLOBIN / LEUKOCYTE COUNT / LYMPHOCYTE / MEAN CORPUSCULAR HEMOGLOBIN / MEAN CORPUSCULAR HEMOGLOBIN CONCENTRATION / MEAN CORPUSCULAR VOLUME / MONOCYTE / NEUTROPHIL / NUCLEATED RED BLOOD CELLS / PLATELET COUNT: tissue Blood; for ALANINE AMINOTRANSFERASE / ALBUMIN / ALKALINE PHOSPHATASE / ASPARTATE AMINOTRANSFERASE / BLOOD UREA NITROGEN / CARBON DIOXIDE / CHLORIDE / CHOLESTEROL / CREATINE PHOSPHOKINASE / CREATININE / GLUCOSE / LACTATE DEHYDROGENASE / LIPASE / PHOSPHORUS / POTASSIUM / SODIUM / TOTAL BILIRUBIN / TOTAL PROTEIN / URIC ACID: tissue Plasma
[1] = 0 mg/kg, 72 h, dose level Control, time 3 day
[2] = 0 mg/kg, 120 h, dose level Control, time 5 day
[3] = 29 mg/kg, 72 h, dose level Low, time 3 day

## C[n+]1ccccc1/C=N/O.[Cl-] [PRALIDOXIME CHLORIDE]
[1]
  ABSOLUTE BASOPHIL: 0 CELLS/uL
  ABSOLUTE EOSINOPHIL: 53.17 CELLS/uL
  ABSOLUTE LYMPHOCYTE: 13731.5 CELLS/uL
  ABSOLUTE MONOCYTE: 186.17 CELLS/uL
  ABSOLUTE SEGMENTED NEUTROPHIL: 1645.83 CELLS/uL
  BASOPHIL: 0%
  EOSINOPHIL: 0.33%
  ERYTHROCYTE COUNT: 5.57 x10E6/uL
  HEMATOCRIT: 36.33%
  HEMOGLOBIN: 13.47 G/DL
  LEUKOCYTE COUNT: 15.62 x10E3/uL
  LYMPHOCYTE: 88.5%
  MEAN CORPUSCULAR HEMOGLOBIN: 24.22 pg
  MEAN CORPUSCULAR HEMOGLOBIN CONCENTRATION: 37.1 G/DL
  MEAN CORPUSCULAR VOLUME: 65.35 fL
  MONOCYTE: 1.17%
  NEUTROPHIL: 10%
  NUCLEATED RED BLOOD CELLS: 0.17 /100WBC
  PLATELET COUNT: 1295.5 x10E3/uL
  ALANINE AMINOTRANSFERASE: 46.83 u/L
  ALBUMIN: 4.37 G/DL
  ALKALINE PHOSPHATASE: 414.33 u/L
  ASPARTATE AMINOTRANSFERASE: 72.5 u/L
  BLOOD UREA NITROGEN: 17 mg/dL
  CARBON DIOXIDE: 23.5 mmol/L
  CHLORIDE: 102 MEQ/L
  CHOLESTEROL: 80.33 mg/dL
  CREATINE PHOSPHOKINASE: 207.83 u/L
  CREATININE: 0.22 mg/dL
  GLUCOSE: 172.17 mg/dL
  LACTATE DEHYDROGENASE: 131 u/L
  LIPASE: 10.33 u/L
  PHOSPHORUS: 11.75 mg/dL
  POTASSIUM: 6.83 MEQ/L
  SODIUM: 145.28 MEQ/L
  TOTAL BILIRUBIN: 0.22 mg/dL
  TOTAL PROTEIN: 6.22 G/DL
  URIC ACID: 1.9 mg/dL
[2]
  ABSOLUTE BASOPHIL: 0 CELLS/uL
  ABSOLUTE EOSINOPHIL: 33 CELLS/uL
  ABSOLUTE LYMPHOCYTE: 12184 CELLS/uL
  ABSOLUTE MONOCYTE: 108 CELLS/uL
  ABSOLUTE SEGMENTED NEUTROPHIL: 958.33 CELLS/uL
  BASOPHIL: 0%
  EOSINOPHIL: 0.17%
  ERYTHROCYTE COUNT: 5.9 x10E6/uL
  HEMATOCRIT: 36.58%
  HEMOGLOBIN: 13.33 G/DL
  LEUKOCYTE COUNT: 13.28 x10E3/uL
  LYMPHOCYTE: 91.17%
  MEAN CORPUSCULAR HEMOGLOBIN: 22.67 pg
  MEAN CORPUSCULAR HEMOGLOBIN CONCENTRATION: 36.47 G/DL
  MEAN CORPUSCULAR VOLUME: 62.13 fL
  MONOCYTE: 0.83%
  NEUTROPHIL: 7.83%
  NUCLEATED RED BLOOD CELLS: 0.33 /100WBC
  PLATELET COUNT: 1475.33 x10E3/uL
  ALANINE AMINOTRANSFERASE: 47 u/L
  ALBUMIN: 4.35 G/DL
  ALKALINE PHOSPHATASE: 368.33 u/L
  ASPARTATE AMINOTRANSFERASE: 90.83 u/L
  BLOOD UREA NITROGEN: 15.5 mg/dL
  CARBON DIOXIDE: 26.5 mmol/L
  CHLORIDE: 103.33 MEQ/L
  CHOLESTEROL: 71.83 mg/dL
  CREATINE PHOSPHOKINASE: 585.33 u/L
  CREATININE: 0.19 mg/dL
  GLUCOSE: 171.17 mg/dL
  LACTATE DEHYDROGENASE: 388.83 u/L
  LIPASE: 10.83 u/L
  PHOSPHORUS: 11.75 mg/dL
  POTASSIUM: 6.21 MEQ/L
  SODIUM: 143.7 MEQ/L
  TOTAL BILIRUBIN: 0.17 mg/dL
  TOTAL PROTEIN: 6.17 G/DL
  URIC ACID: 1.98 mg/dL
[3]
  ABSOLUTE BASOPHIL: 0 CELLS/uL
  ABSOLUTE EOSINOPHIL: 0 CELLS/uL
  ABSOLUTE LYMPHOCYTE: 13602.67 CELLS/uL
  ABSOLUTE MONOCYTE: 59 CELLS/uL
  ABSOLUTE SEGMENTED NEUTROPHIL: 1538.33 CELLS/uL
  BASOPHIL: 0%
  EOSINOPHIL: 0%
  ERYTHROCYTE COUNT: 5.23 x10E6/uL
  HEMATOCRIT: 33.13%
  HEMOGLOBIN: 12.77 G/DL
  LEUKOCYTE COUNT: 15.2 x10E3/uL
  LYMPHOCYTE: 89.67%
  MEAN CORPUSCULAR HEMOGLOBIN: 24.4 pg
  MEAN CORPUSCULAR HEMOGLOBIN CONCENTRATION: 38.53 G/DL
  MEAN CORPUSCULAR VOLUME: 63.37 fL
  MONOCYTE: 0.33%
  NEUTROPHIL: 10%
  NUCLEATED RED BLOOD CELLS: 0.33 /100WBC
  PLATELET COUNT: 1243.67 x10E3/uL
  ALANINE AMINOTRANSFERASE: 60 u/L
  ALBUMIN: 4.27 G/DL
  ALKALINE PHOSPHATASE: 485.33 u/L
  ASPARTATE AMINOTRANSFERASE: 76.33 u/L
  BLOOD UREA NITROGEN: 18.67 mg/dL
  CARBON DIOXIDE: 25 mmol/L
  CHLORIDE: 104.67 MEQ/L
  CHOLESTEROL: 77.67 mg/dL
  CREATINE PHOSPHOKINASE: 170 u/L
  CREATININE: 0.26 mg/dL
  GLUCOSE: 180.67 mg/dL
  LACTATE DEHYDROGENASE: 87.67 u/L
  LIPASE: 11 u/L
  PHOSPHORUS: 13.93 mg/dL
  POTASSIUM: 6.97 MEQ/L
  SODIUM: 146.7 MEQ/L
  TOTAL BILIRUBIN: 0.23 mg/dL
  TOTAL PROTEIN: 5.97 G/DL
  URIC ACID: 1.47 mg/dL
